Laboratory results as given in ChEMBL document CHEMBL1152002, “Synthesis of inhibitors of -1,3-fucosyltransferase” (Bioorg Med Chem Lett, 1997).

Columns and labels:
[1] = Compound was tested for the inhibition of Fucosyltransferase 4 alpha 1,3 at 8.5 uM GDP-fucose
[2] = Compound was tested for the inhibition of Fucosyltransferase 4 alpha 1,3 at 2 uM GDP-fucose

Which IC50 [1] does the source give for `C[C@@H]1NC[C@@H](O)[C@H](O)[C@@H]1O` [DEOXYFUCONOJIRIMYCIN] here?
Its IC50 is 3500 µM.

For `C[C@H]1[C@@H](O)[C@H](O)[C@H](O)CN1Cc1ccccc1O[C@@H]1O[C@@H](CO)[C@H](O)[C@H](O)[C@@H]1O`, which IC50 [2] is on record?
The IC50 was 50 µM.

What about the IC50 [1] of the same compound?
Its IC50 is 81 µM.

With `C[C@H]1[C@@H](O)[C@H](O)[C@H](O)CN1CCCO[C@@H]1O[C@@H](CO)[C@H](O)[C@H](O)[C@@H]1O` as the compound, how does the IC50 [1] read?
Its IC50 is over 500 µM.

Which IC50 [1] does the source give for `C[C@H]1[C@@H](O)[C@H](O)[C@H](O)CN1CCCCO[C@@H]1O[C@@H](CO)[C@H](O)[C@H](O)[C@@H]1O` here?
The IC50 was 233 µM.

With `Nc1nc2c(ncn2[C@@H]2O[C@H](COP(=O)(O)OP(=O)(O)O)[C@@H](O)[C@H]2O)c(=O)[nH]1` as the compound, how does the IC50 [1] read?
Its IC50 is 5 µM.
